# Reference: the supplement of paper PMC10307832
# What was measured:
# Assay in all cases: relative viability (nuclei count vs DMSO), 5 days (fraction); higher = more cells survive
# NCI-H441 = test system: NCI-H441
# Method in brief: (§1)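 Medians of duplicate plates are given as relative viability. That measure is the nuclei count in treated wells divided by the count in vehicle wells. Counts were taken on 4× images of lung cancer cell lines in 1536-well plates, 5 days after pin-tool dosing the day after seeding with one drug alone or a fixed anchor-drug dose plus five library-drug doses (not always all listed) in √10 steps.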
# NCI-H838 = test system: NCI-H838
# Method in brief: as §1
# NCI-H3122 = test system: NCI-H3122
# Method in brief: as §1
# COR-L23 = test system: COR-L23
# Method in brief: as §1
# NCI-H2170 = test system: NCI-H2170
# Method in brief: as §1
# LU99A = test system: LU99A
# Method in brief: as §1
# HARA = test system: HARA
# Method in brief: as §1
# COR-L 105 = test system: COR-L 105
# Method in brief: as §1
# NCI-H661 = test system: NCI-H661
# Method in brief: as §1
# LK-2 = test system: LK-2
# Method in brief: as §1
# NCI-H1650 = test system: NCI-H1650
# Method in brief: as §1
# BEN = test system: BEN
# Method in brief: as §1
# NCI-H727 = test system: NCI-H727
# Method in brief: as §1
# NCI-H2009 = test system: NCI-H2009
# Method in brief: as §1
# ABC-1 = test system: ABC-1
# Method in brief: as §1
# CAL-12T = test system: CAL-12T
# Method in brief: as §1
# NCI-H1437 = test system: NCI-H1437
# Method in brief: as §1
# SW 900 = test system: SW 900
# Method in brief: as §1
# HCC-366 = test system: HCC-366
# Method in brief: as §1
# PC-14 = test system: PC-14
# Method in brief: as §1
# NCI-H1666 = test system: NCI-H1666
# Method in brief: as §1
# 201T = test system: 201T
# Method in brief: as §1
# EKVX = test system: EKVX
# Method in brief: as §1
smiles,measurement,setting,value
CC1(C)CCC(c2ccc(Cl)cc2)=C(CN2CCN(c3ccc(C(=O)NS(=O)(=O)c4ccc(N[C@H](CCN5CCOCC5)CSc5ccccc5)c(S(=O)(=O)C(F)(F)F)c4)cc3)CC2)C1 [Navitoclax] + Cc1cc(Nc2cc(N3CCN(C)CC3)nc(Sc3ccc(NC(=O)C4CC4)cc3)n2)n[nH]1 [Tozasertib] (partner 0.1 µM),relative viability,NCI-H441; first compound 0.005 µM,0.648
same,relative viability,NCI-H441; first compound 0.01581 µM,0.846
same,relative viability,NCI-H441; first compound 0.05 µM,0.719
same,relative viability,NCI-H441; first compound 0.1581 µM,0.524
same,relative viability,NCI-H441; first compound 0.5 µM,0.676
same,relative viability,NCI-H838; first compound 0.005 µM,0.295
same,relative viability,NCI-H838; first compound 0.01581 µM,0.328
same,relative viability,NCI-H838; first compound 0.05 µM,0.266
same,relative viability,NCI-H838; first compound 0.1581 µM,0.266
same,relative viability,NCI-H838; first compound 0.5 µM,0.292
same,relative viability,NCI-H3122; first compound 0.005 µM,0.353
same,relative viability,NCI-H3122; first compound 0.01581 µM,0.286
same,relative viability,NCI-H3122; first compound 0.05 µM,0.481
same,relative viability,NCI-H3122; first compound 0.1581 µM,0.306
same,relative viability,NCI-H3122; first compound 0.5 µM,0.373
same,relative viability,COR-L23; first compound 0.005 µM,0.236
same,relative viability,COR-L23; first compound 0.01581 µM,0.197
same,relative viability,COR-L23; first compound 0.05 µM,0.172
same,relative viability,COR-L23; first compound 0.1581 µM,0.198
same,relative viability,COR-L23; first compound 0.5 µM,0.228
same,relative viability,NCI-H2170; first compound 0.005 µM,0.716
same,relative viability,NCI-H2170; first compound 0.01581 µM,0.71
same,relative viability,NCI-H2170; first compound 0.05 µM,0.689
same,relative viability,NCI-H2170; first compound 0.1581 µM,0.684
same,relative viability,NCI-H2170; first compound 0.5 µM,0.665
same,relative viability,LU99A; first compound 0.005 µM,0.264
same,relative viability,LU99A; first compound 0.01581 µM,0.355
same,relative viability,LU99A; first compound 0.05 µM,0.244
same,relative viability,LU99A; first compound 0.1581 µM,0.337
same,relative viability,LU99A; first compound 0.5 µM,0.37
same,relative viability,HARA; first compound 0.005 µM,0.0833
same,relative viability,HARA; first compound 0.01581 µM,0.113
same,relative viability,HARA; first compound 0.1581 µM,0.0955
same,relative viability,HARA; first compound 0.5 µM,0.0891
same,relative viability,COR-L 105; first compound 0.005 µM,0.353
same,relative viability,COR-L 105; first compound 0.01581 µM,0.338
same,relative viability,COR-L 105; first compound 0.05 µM,0.369
same,relative viability,COR-L 105; first compound 0.1581 µM,0.348
same,relative viability,COR-L 105; first compound 0.5 µM,0.29
same,relative viability,NCI-H661; first compound 0.005 µM,0.355
same,relative viability,NCI-H661; first compound 0.01581 µM,0.344
same,relative viability,NCI-H661; first compound 0.05 µM,0.341
same,relative viability,NCI-H661; first compound 0.1581 µM,0.363
same,relative viability,NCI-H661; first compound 0.5 µM,0.358
same,relative viability,LK-2; first compound 0.005 µM,0.189
same,relative viability,LK-2; first compound 0.01581 µM,0.187
same,relative viability,LK-2; first compound 0.05 µM,0.198
same,relative viability,LK-2; first compound 0.1581 µM,0.159
same,relative viability,LK-2; first compound 0.5 µM,0.2
same,relative viability,NCI-H1650; first compound 0.005 µM,0.363
same,relative viability,NCI-H1650; first compound 0.01581 µM,0.419
same,relative viability,NCI-H1650; first compound 0.05 µM,0.415
same,relative viability,NCI-H1650; first compound 0.1581 µM,0.34
same,relative viability,NCI-H1650; first compound 0.5 µM,0.356
same,relative viability,BEN; first compound 0.005 µM,0.536
same,relative viability,BEN; first compound 0.01581 µM,0.568
same,relative viability,BEN; first compound 0.05 µM,0.522
same,relative viability,BEN; first compound 0.1581 µM,0.451
same,relative viability,BEN; first compound 0.5 µM,0.421
same,relative viability,NCI-H727; first compound 0.005 µM,0.621
same,relative viability,NCI-H727; first compound 0.01581 µM,0.692
same,relative viability,NCI-H727; first compound 0.1581 µM,0.676
same,relative viability,NCI-H727; first compound 0.5 µM,0.646
same,relative viability,NCI-H2009; first compound 0.005 µM,0.692
same,relative viability,NCI-H2009; first compound 0.01581 µM,0.79
same,relative viability,NCI-H2009; first compound 0.05 µM,0.713
same,relative viability,NCI-H2009; first compound 0.1581 µM,0.769
same,relative viability,NCI-H2009; first compound 0.5 µM,0.711
same,relative viability,ABC-1; first compound 0.005 µM,0.158
same,relative viability,ABC-1; first compound 0.01581 µM,0.19
same,relative viability,ABC-1; first compound 0.05 µM,0.144
same,relative viability,ABC-1; first compound 0.1581 µM,0.164
same,relative viability,ABC-1; first compound 0.5 µM,0.141
same,relative viability,CAL-12T; first compound 0.005 µM,0.273
same,relative viability,CAL-12T; first compound 0.01581 µM,0.354
same,relative viability,CAL-12T; first compound 0.05 µM,0.312
same,relative viability,CAL-12T; first compound 0.1581 µM,0.347
same,relative viability,CAL-12T; first compound 0.5 µM,0.308
same,relative viability,NCI-H1437; first compound 0.005 µM,0.408
same,relative viability,NCI-H1437; first compound 0.01581 µM,0.407
same,relative viability,NCI-H1437; first compound 0.05 µM,0.357
same,relative viability,NCI-H1437; first compound 0.1581 µM,0.46
same,relative viability,NCI-H1437; first compound 0.5 µM,0.386
same,relative viability,SW 900; first compound 0.005 µM,0.456
same,relative viability,SW 900; first compound 0.01581 µM,0.46
same,relative viability,SW 900; first compound 0.05 µM,0.385
same,relative viability,SW 900; first compound 0.1581 µM,0.59
same,relative viability,SW 900; first compound 0.5 µM,0.501
same,relative viability,HCC-366; first compound 0.005 µM,0.109
same,relative viability,HCC-366; first compound 0.01581 µM,0.11
same,relative viability,HCC-366; first compound 0.1581 µM,0.118
same,relative viability,HCC-366; first compound 0.5 µM,0.117
same,relative viability,PC-14; first compound 0.005 µM,0.623
same,relative viability,PC-14; first compound 0.01581 µM,0.633
same,relative viability,PC-14; first compound 0.05 µM,0.7
same,relative viability,PC-14; first compound 0.1581 µM,0.553
same,relative viability,PC-14; first compound 0.5 µM,0.559
same,relative viability,NCI-H1666; first compound 0.005 µM,0.626
same,relative viability,NCI-H1666; first compound 0.01581 µM,0.638
same,relative viability,NCI-H1666; first compound 0.05 µM,0.61
same,relative viability,NCI-H1666; first compound 0.1581 µM,0.587
same,relative viability,NCI-H1666; first compound 0.5 µM,0.666
same,relative viability,201T; first compound 0.005 µM,0.975
same,relative viability,201T; first compound 0.01581 µM,1.04
same,relative viability,201T; first compound 0.05 µM,0.778
same,relative viability,201T; first compound 0.1581 µM,0.931
same,relative viability,201T; first compound 0.5 µM,1.01
same,relative viability,EKVX; first compound 0.005 µM,0.411
same,relative viability,EKVX; first compound 0.01581 µM,0.388
same,relative viability,EKVX; first compound 0.05 µM,0.323
same,relative viability,EKVX; first compound 0.1581 µM,0.44
same,relative viability,EKVX; first compound 0.5 µM,0.294
